From patent US11008605B2, “Analysis of single-stranded RNA” (VILNIUS UNIVERSITY, priority 2015, dated 2021)

Columns and labels:
[1] = target: T1, Hs-piRMT (Homo sapiens, UniProt Q5T8I9); experiment: Metal ion requirement of piRMT methylation of ssRNA miR173.1 (NaIO4/β-elimination, PAG autoradiography); assay type: biochemical; settings: 10 mM metal ion, 1 μM piRMT, 0.2 μM miR173.1, 0.1 mM AdoMet, 30 min, 37° C.
Method: (§1) To test the requirement of different metal cofactors, 20 μl reaction volumes, containing reaction buffer [10 mM Tris-HCl (pH 7.4), 50 mM NaCl, 0.1 mg/ml BSA, 5% (v/v) glycerol and 0.05 u/μl RiboLock (Thermo Scientific)], 0.2 μM ^32P-labelled miR173.1 (5′-[…]-3′, 22 nt) (SEQ ID NO: 3), 0.1 mM AdoMet, 10 mM metal ion and 1 μM of piRMT proteins' were mixed. After 30 min of incubation at 37° C., the degree of modification was determined by NaIO4/β-elimination reaction, during which RNA was treated with 0.2 mM NaIO4 in borax/boric acid buffer [0.06 M, pH 8.6] for 15 min followed by 75 min incubation in borax/boric acid buffer II [0.06 M pH 9.6] at 42° C. Reaction samples were analyzed in 13% denaturing polyacrylamide gel (PAG) and autoradiographed. Fractions of methylated RNA, represented by bands with lower electrophoretic mobility, were evaluated using Multi Gauge version 3.0 software (Fujifilm). The depletion of metal ions by EDTA in the reaction mixture, together with the sample without any metal cofactor added, further confirms that the effective piRMT methylation is due to Co^2+ and Co^3+ ions. B. Column-diagram of RNA methylation efficiency with different metal cofactors. Results are average of duplicate experiments±S.D.

[2] = target: T2, Dm-piRMT (Drosophila melanogaster, UniProt Q7K175); experiment: as above; assay type: biochemical; design: modification efficiency towards RNA substrates with different 3′ terminal nucleotides (U, C, A, G): dose or concentration left out as unconfirmed
T2 sequence (Q7K175 1-391): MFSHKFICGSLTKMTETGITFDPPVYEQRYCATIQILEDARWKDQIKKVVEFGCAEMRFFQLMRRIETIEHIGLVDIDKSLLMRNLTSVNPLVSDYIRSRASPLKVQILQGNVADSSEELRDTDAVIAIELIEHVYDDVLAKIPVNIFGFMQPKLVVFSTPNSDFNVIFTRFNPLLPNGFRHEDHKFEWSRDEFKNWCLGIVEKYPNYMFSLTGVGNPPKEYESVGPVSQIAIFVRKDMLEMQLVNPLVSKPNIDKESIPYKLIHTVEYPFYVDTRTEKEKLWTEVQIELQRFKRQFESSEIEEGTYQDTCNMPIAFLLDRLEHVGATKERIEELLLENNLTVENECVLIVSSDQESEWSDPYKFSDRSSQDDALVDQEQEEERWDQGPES
Method: as §1, with “10 mM metal ion and 1 μM of piRMT proteins' were mixed.” left out
B. Column-diagram of modification efficiency of miR173.1 with different 3′ terminal nucleotides. Results are average of two experiments±S.D.

[3] = target: T1, Hs-piRMT; settings: Mn2+ as metal cofactor; cited from earlier work

T1 sequence (Q5T8I9 whole entry): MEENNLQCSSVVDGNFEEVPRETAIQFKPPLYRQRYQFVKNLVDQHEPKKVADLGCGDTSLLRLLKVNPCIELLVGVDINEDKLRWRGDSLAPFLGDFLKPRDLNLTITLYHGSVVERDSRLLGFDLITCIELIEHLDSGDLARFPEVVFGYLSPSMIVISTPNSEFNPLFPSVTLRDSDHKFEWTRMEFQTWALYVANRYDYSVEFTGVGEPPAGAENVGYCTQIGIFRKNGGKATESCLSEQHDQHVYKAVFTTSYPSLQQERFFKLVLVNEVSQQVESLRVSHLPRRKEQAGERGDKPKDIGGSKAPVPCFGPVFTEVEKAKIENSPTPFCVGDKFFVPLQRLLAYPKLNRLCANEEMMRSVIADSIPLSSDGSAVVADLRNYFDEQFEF

| degree of methylation of ssRNA substrate with metal ion cofactor [1] | degree of methylation of ssRNA substrate with metal ion cofactor ([2]; 10 mM metal ion, 1 μM piRMT, 0.2 μM miR173.1, 0.1 mM AdoMet, 30 min, 37° C.) | modification efficiency towards RNA substrates with different 3′ terminal nucleotides (U, C, A, G) ([2]; Co2+ as metal cofactor, miR173.1 variants) | SMILES | RNA modification level in presence of metal ion [3] |
| --- | --- | --- | --- | --- |
| full methylation | full methylation | equally effective modification | [Co+2] [Co^2+] | – |
| – | – | – | [Mn+2] [Mn^2+] | seemingly low levels |
